Patent publication US9296741B2, “Bromodomain inhibitors” (priority 2012, dated 2016)

Experiments:
[1] = target: human BRD4 first bromodomain (BDI_K57-E168) (Homo sapiens (Human), UniProt O60885); test: TR-FRET bromodomain binding assay, BRD4 first bromodomain
[2] = target: human BRD4 second bromodomain (BDII_E352-M457) (Homo sapiens (Human), UniProt O60885); test: TR-FRET bromodomain binding assay, BRD4 second bromodomain
[3] = Rat liver microsome stability assay; assay type: in vitro ADME; conditions: rat liver microsomes (male Sprague-Dawley), 0.5 μM test compound, 0.25 mg/mL microsomal protein, pH 7.4, 37° C.; read-out: Stability in rat liver microsomes (t1/2 in minutes)
[4] = tested on: breast cancer cell line MX-1; test: MX-1 cell line proliferation assay; assay type: cell-based, human; conditions: Homo sapiens, MX1, 72 h; MX-1 cells, 3-day proliferation, Cell Titer Glo; read-out: Cellular proliferation: EC50
[5] = Mouse liver microsome stability assay; assay type: in vitro ADME; conditions: male, CD1, mouse, microsomes, pH 7.4
[6] = Human liver microsome stability assay; assay type: in vitro ADME; conditions: both sexes, human, microsomes, pH 7.4

Compound | Ki [1] [nM] | Ki [2] [nM] | half-life at 0.5 μM [3] [min] | EC50 [4] [nM] | half-life at 0.5 μM [5] [min] | half-life at 0.5 μM [6] [min]
Cn1cc(-c2ccc(OCC3CC3)c(-c3cn(C)c(=O)c4[nH]ccc34)c2)cn1 [Example 318, 4-[2-(cyclopropylmethoxy)-5-(1-methyl-1H-pyrazol-4-yl)phenyl]-6-methyl-1,6-dihydro-7H-pyrrolo[2,3-c]pyridin-7-one] | 346 | 625 | 24 | > 3000 | 13 | 35
Cn1cc(-c2cc(S(=O)(=O)N3CCc4ccccc43)ccc2Oc2ccc(F)cc2F)c2cc[nH]c2c1=O [Example 319, 4-[2-(2,4-difluorophenoxy)-5-(2,3-dihydro-1H-indol-1-ylsulfonyl)phenyl]-6-methyl-1,6-dihydro-7H-pyrrolo[2,3-c]pyridin-7-one] | 372 | 9.9 | 2 | 435 | 2 | 2
CCS(=O)(=O)c1ccc(Oc2ccc(F)cc2F)c(-c2cn(C)c(=O)c3[nH]ncc23)c1 [Example 322, 4-[2-(2,4-difluorophenoxy)-5-(ethylsulfonyl)phenyl]-6-methyl-1,6-dihydro-7H-pyrazolo[3,4-c]pyridin-7-one] | 181 | 45.6 | 57 | 66.8 | > 120 | > 120
Cn1cc(-c2cc(C3=CCN(C(=O)OC(C)(C)C)CC3)ccc2OCC2CC2)c2cc[nH]c2c1=O [Example 325, tert-butyl 4-[4-(cyclopropylmethoxy)-3-(6-methyl-7-oxo-6,7-dihydro-1H-pyrrolo[2,3-c]pyridin-4-yl)phenyl]-3,6-dihydropyridine-1(2H)-carboxylate] | 155 | 199 | 10 | 703 | 8 | 21
Cn1cc(-c2cc(-c3ccc(N)nc3)ccc2OCC2CC2)c2cc[nH]c2c1=O [Example 326, 4-[5-(6-aminopyridin-3-yl)-2-(cyclopropylmethoxy)phenyl]-6-methyl-1,6-dihydro-7H-pyrrolo[2,3-c]pyridin-7-one] | 145 | 272 | 5 | 286 | 27 | 112
CCS(=O)(=O)N(CC1CCCO1)c1ccc(Oc2ccc(F)cc2F)c(-c2cn(C)c(=O)c3[nH]ccc23)c1 (stereo not drawn) [Example 345, N-[4-(2,4-difluorophenoxy)-3-(6-methyl-7-oxo-6,7-dihydro-1H-pyrrolo[2,3-c]pyridin-4-yl)phenyl]-N-(tetrahydrofuran-2-ylmethyl)ethanesulfonamide] | 129 | 32.6 | 4 | 479 | 2 | 2
CCS(=O)(=O)N(CCC(F)(F)F)c1ccc(Oc2ccc(F)cc2F)c(-c2cn(C)c(=O)c3[nH]ccc23)c1 [Example 346, N-[4-(2,4-difluorophenoxy)-3-(6-methyl-7-oxo-6,7-dihydro-1H-pyrrolo[2,3-c]pyridin-4-yl)phenyl]-N-(3,3,3-trifluoropropyl)ethanesulfonamide] | 96.2 | 16 | 5 | 213 | 2 | 4

These reach a lower Ki [1]. Values come first.

Ki [1] [nM] | Ki [2] [nM] | half-life at 0.5 μM [3] [min] | EC50 [4] [nM] | half-life at 0.5 μM [5] [min] | half-life at 0.5 μM [6] [min] | Compound
37.6 | 231 | 4 | 160 | 11 | 34 | Cn1cc(-c2cc(-c3cccnc3)ccc2OCC2CC2)c2cc[nH]c2c1=O [Example 315, 4-[2-(cyclopropylmethoxy)-5-(pyridin-3-yl)phenyl]-6-methyl-1,6-dihydro-7H-pyrrolo[2,3-c]pyridin-7-one]
6.7 | 3.6 | 115 | 16.8 | 83 | 88 | CCS(=O)(=O)c1ccc(Oc2cccc(CO)c2)c(-c2cn(C)c(=O)c3[nH]ccc23)c1 [Example 317, 4-{5-(ethylsulfonyl)-2-[3-(hydroxymethyl)phenoxy]phenyl}-6-methyl-1,6-dihydro-7H-pyrrolo[2,3-c]pyridin-7-one]
8.5 | 4.2 | > 120 | 35.4 | > 120 | > 120 | CCS(=O)(=O)c1ccc(OCC2CC2(F)F)c(-c2cn(C)c(=O)c3[nH]c(C(=O)NCC(F)(F)F)cc23)c1 (stereo not drawn) [Example 327, 4-{2-[(2,2-difluorocyclopropyl)methoxy]-5-(ethylsulfonyl)phenyl}-6-methyl-7-oxo-N-(2,2,2-trifluoroethyl)-6,7-dihydro-1H-pyrrolo[2,3-c]pyridine-2-carboxamide]
30.4 | 30.6 | 70 | 53.1 | > 120 | 65 | Cn1cc(-c2cc(S(C)(=O)=O)ccc2Nc2ccc(F)cc2)c2cc[nH]c2c1=O [Example 332, 4-{2-[(4-fluorophenyl)amino]-5-(methylsulfonyl)phenyl}-6-methyl-1,6-dihydro-7H-pyrrolo[2,3-c]pyridin-7-one]
76.2 | 152 | 5 | 115 | 17 | 44 | Cn1cc(-c2cc(CC#N)ccc2OCC2CC2)c2cc[nH]c2c1=O [Example 336, [4-(cyclopropylmethoxy)-3-(6-methyl-7-oxo-6,7-dihydro-1H-pyrrolo[2,3-c]pyridin-4-yl)phenyl]acetonitrile]
4.3 | 4.2 | > 120 | 15.8 | > 120 | > 120 | CCS(=O)(=O)Nc1ccc(Oc2ccc(F)cc2F)c(-c2cn(C)c(=O)c3[nH]c(CO)cc23)c1 [Example 337, N-{4-(2,4-difluorophenoxy)-3-[2-(hydroxymethyl)-6-methyl-7-oxo-6,7-dihydro-1H-pyrrolo[2,3-c]pyridin-4-yl]phenyl}ethanesulfonamide]
0.86 | 12.7 | 29 | 77.9 | 20 | 39 | CCS(=O)(=O)Nc1ccc(Oc2ccc(F)cc2F)c(-c2cn(C)c(=O)c3[nH]c(C(=O)N4CCN(C)CC4)cc23)c1 [Example 338, N-[4-(2,4-difluorophenoxy)-3-{6-methyl-2-[(4-methylpiperazin-1-yl)carbonyl]-7-oxo-6,7-dihydro-1H-pyrrolo[2,3-c]pyridin-4-yl}phenyl]ethanesulfonamide]
0.8 | 31.6 | 76 | 77.4 | 67 | 100 | CCS(=O)(=O)Nc1ccc(Oc2ccc(F)cc2F)c(-c2cn(C)c(=O)c3[nH]c(CN4CCN(C)CC4)cc23)c1 [Example 339, N-[4-(2,4-difluorophenoxy)-3-{6-methyl-2-[(4-methylpiperazin-1-yl)methyl]-7-oxo-6,7-dihydro-1H-pyrrolo[2,3-c]pyridin-4-yl}phenyl]ethanesulfonamide]
